The values below come from patent US10525103B2, “Combined use of a vector encoding a modified receptor and its exogenous agonist in the treatment of seizures” (UCL BUSINESS LTD, priority 2014, dated 2020).

For series [1], the target named is T1, hM4Di (Homo sapiens, UniProt P08173, A203G/Y113C).
T1 sequence (P08173 1-479 Y113C/A203G): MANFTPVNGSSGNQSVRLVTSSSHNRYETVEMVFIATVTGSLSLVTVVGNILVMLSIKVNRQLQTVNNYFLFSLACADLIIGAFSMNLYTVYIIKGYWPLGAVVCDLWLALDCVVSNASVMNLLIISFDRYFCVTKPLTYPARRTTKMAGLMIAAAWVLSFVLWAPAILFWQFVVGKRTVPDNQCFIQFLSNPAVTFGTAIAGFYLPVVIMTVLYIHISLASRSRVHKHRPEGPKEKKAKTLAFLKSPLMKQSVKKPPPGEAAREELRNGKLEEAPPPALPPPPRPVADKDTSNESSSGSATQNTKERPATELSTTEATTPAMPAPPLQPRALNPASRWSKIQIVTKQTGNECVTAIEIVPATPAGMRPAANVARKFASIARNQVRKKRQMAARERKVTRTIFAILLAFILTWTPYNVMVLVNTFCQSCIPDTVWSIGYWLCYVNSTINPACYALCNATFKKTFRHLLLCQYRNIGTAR
The class given is in vivo. On the set-up: host or cells: rat (Sprague-Dawley) primary motor cortex neurons transduced in vivo with AAV5, Camk2a promoter.

The conditions of series [2]: cited from earlier work.
For series [3] the following is noted: human, in vivo; cited from earlier work.
The target of series [4] is T1, hM4Di. On the set-up: host or cells: rat (Sprague-Dawley) primary motor cortex neurons transduced in vivo with AAV5, Camk2a promoter. To be noted: in vivo.
Series [5] deals with human muscarinic acetylcholine receptors mutated to DREADDs. To be noted: cited from earlier work.
Series [6] deals with T1, hM4Di. The class given is in vivo. On the set-up: host or cells: rat (Sprague-Dawley) primary motor cortex neurons transduced in vivo with AAV5, Camk2a promoter. To be noted: tetanus toxin model; CNO 1 mg/kg i.p. twice at 2-hour interval, 3.5 hour window, vs vehicle; P=0.028 Wilcoxon.
Series [7] deals with T1, hM4Di. Nature of the series: Overview of hM4Di/CNO treatment in in vivo models of focal epilepsy.
For a further series, the target named is hM3Dq (Homo sapiens, UniProt P20309, A239G/Y149C). The following applies: cited from earlier work.

Like-named read-outs stand apart in the source and are kept apart here.

hM3Dq, sequence (P20309 whole entry Y149C/A239G): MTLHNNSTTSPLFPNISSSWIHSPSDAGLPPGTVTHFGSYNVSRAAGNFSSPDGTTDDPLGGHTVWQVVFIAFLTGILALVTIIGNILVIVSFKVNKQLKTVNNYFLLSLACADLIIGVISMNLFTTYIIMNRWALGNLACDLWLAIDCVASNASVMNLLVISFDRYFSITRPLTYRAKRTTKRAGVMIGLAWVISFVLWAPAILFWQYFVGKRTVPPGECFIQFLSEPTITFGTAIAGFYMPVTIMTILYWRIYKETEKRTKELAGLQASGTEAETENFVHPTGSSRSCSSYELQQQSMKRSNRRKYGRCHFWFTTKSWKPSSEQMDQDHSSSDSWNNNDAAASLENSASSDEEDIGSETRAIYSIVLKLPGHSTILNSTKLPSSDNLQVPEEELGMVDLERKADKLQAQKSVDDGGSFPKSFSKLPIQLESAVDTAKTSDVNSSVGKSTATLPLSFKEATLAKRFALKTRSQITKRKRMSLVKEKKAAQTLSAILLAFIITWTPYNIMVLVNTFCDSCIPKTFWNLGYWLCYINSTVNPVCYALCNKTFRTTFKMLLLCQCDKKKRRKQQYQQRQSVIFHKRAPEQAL

For `C[N+]1([O-])CCN(C2=Nc3cc(Cl)ccc3Nc3ccccc32)CC1` [CNO, clozapine-N-oxide], the “time to significant reduction in seizure severity after CNO administration” value at hM4Di [1] (picrotoxin (FIG. 2e)) was no more than 10 min. Moreover, the “attenuation of IF activity” value on hM4Di [1] (picrotoxin, IF activity correlated with more severe motor seizures) was “especially marked”. On hM4Di [1] (rats with hM4Di AAV in M1, CNO i.p. immediately after focal picrotoxin, vs vehicle), the electrographic discharges result is reported as “attenuated”. Further, the “duration of effect on neurons transduced with hM4Di or its excitatory analog” value in series [2] is “at least 90 minutes”. Further, the “time to full clearance” value in series [2] (rat, in vivo) was no more than 12 h. Besides, the half-life in series [3] was 7 to 8 h. At hM4Di [4], the “electrographic and motor convulsions” value is given as “substantially reduced”; the “mean 4-14 Hz power” value is reported as “significant decrease”; the “mean frequency of negative deflections in the EEG” value is reported as “significant decrease”; the “number of IF runs that correlate with severe motor seizures” value is on record as “significant decrease”. For the same molecule, on hM4Di [4], the pilocarpine-triggered seizures entry was “profoundly suppressed” and the “time to significant reduction in seizure severity after CNO administration” value is no more than 10 min. Besides, the “activation of DREADD receptors” value in series [5] was “readily activated”. For the same molecule, on hM4Di [6], the coastline result is listed as “significantly attenuated”, the “frequency of epileptiform bursts” value was “significantly attenuated” and the high-frequency power entry was “significantly attenuated”. For the same molecule, the “duration of seizure suppression / CNO present in the brain” value on hM4Di [7] (following a single intraperitoneal injection) is 45 to 60 min. Besides, the “tolerability of the treatment” value at hM4Di [7] (hM4Di expression plus systemic CNO) is reported as “well tolerated”.
`CN1CCN(C2=Nc3ccccc3Cc3ccccc32)CC1` [perlapine]: the “binding to hM3Dq” value at hM3Dq is given as “binds”.

The half-life is the time needed for the level to fall by half in the phase considered.
